Results: patent US20240124442A1, “TRICYCLIC-AMIDO-BICYCLIC PRMT5 INHIBITORS” (AMGEN INC., priority 2021, published 2024)
Where two headings read alike, the source gives them in different places.

Tests used:
HCT116 MTAP null cells = assay: HCT116 MTAP null cell line proliferation / cell viability (CellTiter-Glo, 6 days); format: cell-based; conditions: for IC50: HCT116 MTAP null cells, 6 days treatment, CellTiter-Glo cell viability, read-out: HCT-116 MTAP null IC50; for relative potency of the enantiomers (measured by IC50 in HCT116 MTAP null cell viability assay): comparison of the two enantiomers separated by SFC, used to assign (S)/(R)
Summary of the method: (§1)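 Viability read by CellTiter-Glo luminescence after 6 days of compound treatment of HCT116 WT and MTAP-null cells (RPMI 1640, 10% FBS). Dose series were 1:3 steps from 1 or 10 μM (8–9 points), or 1:2 steps from 10 or 50 μM (22 points). IC50 from 4-parameter logistic or fixed-slope sigmoidal fit.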

HCT116 WT cells = assay: HCT116 WT (parent) cell line proliferation / cell viability (CellTiter-Glo, 6 days); format: cell-based; conditions: 6 days treatment
Summary of the method: as §1

Compound | IC50 (HCT116 MTAP null cells; 144 h) | IC50 (HCT116 WT cells; Homo sapiens, HCT-116, 144 h) | relative potency of the enantiomers (measured by IC50 in HCT116 MTAP null cell viability assay) (HCT116 MTAP null cells) | IC50 (HCT116 MTAP null cells) | IC50 (HCT116 WT cells; read-out: HCT-116 WT IC50)
CN(C(=O)c1ccc2nc(N)c3c(c2c1)COC3)C1COc2cc(C3=CCN(C(=O)OC(C)(C)C)CC3)ccc21 (racemic) [Example 614, 2-methyl-2-propanyl 4-((3R)-3-(((4-amino-1,3-dihydrofuro[3,4-c]quinolin-8-yl)carbonyl)(methyl)amino)-2,3-dihydro-1-benzofuran-6-yl)-3,6-dihydro-1(2H)-pyridinecarboxylate and 2-methyl-2-propanyl 4-((3S)-3-(((4-amino-1,3-dihydrofuro[3,4-c]quinolin-8-yl)carbonyl)(methyl)amino)-2,3-dihydro-1-benzofuran-6-yl)-3,6-dihydro-1(2H)-pyridinecarboxylate] | 127 nM | 1360 nM | – | – | –
CN(C(=O)c1ccc2nc(N)c3cnn(C)c3c2c1)C1CCc2ccccc21 (racemic) [Example 681, 4-amino-N-((1R)-2,3-dihydro-1H-inden-1-yl)-N,1-dimethyl-1H-pyrazolo[4,3-c]quinoline-8-carboxamide and 4-amino-N-((1S)-2,3-dihydro-1H-inden-1-yl)-N,1-dimethyl-1H-pyrazolo[4,3-c]quinoline-8-carboxamide] | 530 nM | 9330 nM | – | – | –
Cc1ccc2c(n1)CCC2N(C)C(=O)c1ccc2nc(N)c3cnn(C)c3c2c1 (racemic) [Example 682, 4-amino-N,1-dimethyl-N-((5R)-2-methyl-6,7-dihydro-5H-cyclopenta[b]pyridin-5-yl)-1H-pyrazolo[4,3-c]quinoline-8-carboxamide and 4-amino-N,1-dimethyl-N-((5S)-2-methyl-6,7-dihydro-5H-cyclopenta[b]pyridin-5-yl)-1H-pyrazolo[4,3-c]quinoline-8-carboxamide] | 297 nM | 21000 nM | – | – | –
CN(C(=O)c1ccc2nc(N)c3c(c2c1)COC3)[C@@H]1COc2cc(C(F)(F)F)ccc21 (single isomer, unassigned) [Example 317] | 24 nM | 1160 nM | more potent | – | –
CN(C(=O)c1ccc2nc(N)c3c(c2c1)COC3)[C@H]1COc2cc(C(F)(F)F)ccc21 (single isomer, unassigned) [Example 318] | 1360 nM | 10000 nM | less potent | – | –
CN(C(=O)c1ccc2nc(N)c3c(c2c1)COC3)[C@@H]1COc2cc([N+](=O)[O-])ccc21 (single isomer, unassigned) [Example 319] | – | – | – | 48 nM | 2210 nM
CN(C(=O)c1ccc2nc(N)c3c(c2c1)COC3)[C@H]1COc2cc([N+](=O)[O-])ccc21 (single isomer, unassigned) [Example 320] | – | – | – | 3660 nM | 36400 nM
[2H]C([2H])([2H])N(C(=O)c1ccc2nc(N)c3c(c2c1)COC3)[C@H]1COc2cc(C(F)(F)F)ccc21 (single isomer, unassigned) [Example 321] | 2660 nM | 20100 nM | – | – | –
[2H]C([2H])([2H])N(C(=O)c1ccc2nc(N)c3c(c2c1)COC3)[C@@H]1COc2cc(C(F)(F)F)ccc21 (single isomer, unassigned) [Example 322] | 41 nM | 1390 nM | – | – | –
CN(C(=O)c1ccc2nc(N)c3c(c2c1)COC3)[C@@H]1COc2cc(S(C)(=O)=O)ccc21 (single isomer, unassigned) [Example 323] | 76 nM | 3450 nM | – | – | –
CN(C(=O)c1ccc2nc(N)c3c(c2c1)COC3)[C@H]1COc2cc(S(C)(=O)=O)ccc21 (single isomer, unassigned) [Example 324] | 5320 nM | 50000 nM | – | – | –
CN(C(=O)c1ccc2nc(N)c3c(c2c1)COC3)[C@@H]1COc2cc(C(F)(F)F)cc(F)c21 (single isomer, unassigned) [Example 325] | 68 nM | 4160 nM | – | – | –
CN(C(=O)c1ccc2nc(N)c3c(c2c1)COC3)[C@H]1COc2cc(C(F)(F)F)cc(F)c21 (single isomer, unassigned) [Example 326] | 1780 nM | 20600 nM | – | – | –
CN(C(=O)c1ccc2nc(N)c3c(c2c1)COC3)[C@@H]1COc2cc(S(F)(F)(F)(F)F)ccc21 (single isomer, unassigned) [Example 327] | 11 nM | 457 nM | – | – | –
CN(C(=O)c1ccc2nc(N)c3c(c2c1)COC3)[C@H]1COc2cc(S(F)(F)(F)(F)F)ccc21 (single isomer, unassigned) [Example 328] | 2160 nM | 10100 nM | – | – | –
CN(C(=O)c1ccc2nc(N)c3c(c2c1)COC3)[C@@H]1COc2cc(Br)ccc21 (single isomer, unassigned) [Example 329] | 46 nM | 1820 nM | – | – | –
CN(C(=O)c1ccc2nc(N)c3c(c2c1)COC3)[C@H]1COc2cc(Br)ccc21 (single isomer, unassigned) [Example 330] | 1610 nM | 22900 nM | – | – | –
C[C@H]1OCc2c1c(N)nc1ccc(C(=O)N(C)[C@@H]3COc4cc(Br)ccc43)cc21 (single isomer, unassigned) [Example 331] | 26 nM | 2240 nM | – | – | –
C[C@H]1OCc2c1c(N)nc1ccc(C(=O)N(C)[C@H]3COc4cc(Br)ccc43)cc21 (single isomer, unassigned) [Example 332] | 920 nM | 22300 nM | – | – | –
CN(C(=O)c1cc2c3c(c(N)nc2cn1)COC3)[C@@H]1COc2cc(Cl)ccc21 (single isomer, unassigned) [Example 333] | 173 nM | 8480 nM | – | – | –
